Reference: patent publication US8389523B2, “Substituted quinoxaline and an agrochemical composition thereof” (Kumiai Chemical Industry Co., Ltd., priority 2007, dated 2013)

Columns and labels:
Format in all cases: in vivo
Design in all cases: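 grade 0 to 5 of growth suppression where 5 is 90% or more and 0 below 10%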
[1] = test system: Amaranthus viridis L.; assay: Herbicidal effects in upland field foliar treatment (Test Example 3); details: 1000 g of the active ingredient per hectare, 14th day after the treatment, wettable powder, criteria of Table 138
How it was run: (§1)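 Greenhouse pot test, upland soil; 2-wk-old plants sprayed from above with water-diluted wettable powder (1000 L/ha spray volume, 1000 g a.i./ha). Regrown in greenhouse; visual herbicidal score on day 14 post-treatment.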

[2] = test system: Echinochloa crus-galli (L.) P. Beauv. var. crus-galli; assay: as above; details: 1000 g of the active ingredient per hectare, 14th day after the treatment, wettable powder, criteria of Table 138
How it was run: as §1

[3] = test system: Abutilon theophrasti medicus; assay: as above; details: 1000 g of the active ingredient per hectare, 14th day after the treatment, wettable powder, criteria of Table 138
How it was run: as §1

[4] = test system: Monochoria vaginalis (Burm. f.) Presl var. plantaginea (Roxb.) Solms-Laub.; assay: Herbicidal effects in paddy field soil treatment (Test Example 1); details: paddy field soil treatment; 1000 g of the active ingredient per hectare; wettable powder added dropwise on water surface; 21st day after treatment
How it was run: (§2)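 Paddy soil pre-emergence test: seeds sown, flooded 3 cm; next day wettable powder in water applied dropwise to water surface, 1000 g a.i./ha; greenhouse; effect rated visually on scale at 21 d post-treatment.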

[5] = test system: Echinochloa oryzicola Vasing; assay: as above; details: paddy field soil treatment; 1000 g of the active ingredient per hectare; wettable powder added dropwise on water surface; 21st day after treatment
How it was run: as §2

[6] = test system: Scirpus juncoides Roxb. var. ohwianus. T. Koyama; assay: as above; details: paddy field soil treatment; 1000 g of the active ingredient per hectare; wettable powder added dropwise on water surface; 21st day after treatment
How it was run: as §2

[7] = test system: Amaranthus viridis L.; assay: Herbicidal effects in upland field soil treatment (Test Example 2); details: 1000 g active ingredient per hectare, 21st day after treatment, criteria of Table 138
How it was run: (§3)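 Seeds sown in upland soil and covered; surface sprayed with water-diluted wettable powder, 1000 g a.i./ha, spray volume 1000 L/ha. Greenhouse growth, visual herbicidal rating at day 21.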

[8] = test system: Abutilon theophrasti medicus; assay: as above; details: 1000 g active ingredient per hectare, 21st day after treatment, criteria of Table 138
How it was run: as §3

Compound | herbicidal effects on Amaranthus viridis L. [1] | herbicidal effects on Echinochloa crus-galli (L.) P. Beauv. var. crus-galli [2] | herbicidal effects on Abutilon theophrasti medicus [3] | Herbicidal effects index, Monochoria vaginalis (Burm. f.) Presl var. plantaginea (Roxb.) Solms-Laub. [4] | Herbicidal effects index, Echinochloa oryzicola Vasing [5] | Herbicidal effects index, Scirpus juncoides Roxb. var. ohwianus. T. Koyama [6] | herbicidal effect (index) on Amaranthus viridis L. [7] | herbicidal effect (index) on Abutilon theophrasti medicus [8]
CC1COc2cc(-n3c(=O)c(C(=O)C4=C(O)CCCC4=O)nc4ccccc43)ccc2O1 (stereo not drawn) [II-231] | 5 | 5 | 5 | 5 | 5 | 5 | 5 | 4
O=C1CCCC(O)=C1C(=O)c1nc2c(F)cccc2n(-c2ccccc2)c1=O [II-233] | 5 | 5 | 5 | 5 | 5 | 5 | 5 | 5
O=C1CCCC(O)=C1C(=O)c1nc2cc(F)ccc2n(-c2ccccc2)c1=O [II-237] | 5 | 5 | 5 | 5 | 5 | 5 | 5 | 5
COc1cc(-n2c(=O)c(C(=O)C3=C(O)CCCC3=O)nc3cc(F)ccc32)cc(OC)c1OC [II-238] | 5 | 5 | 5 | 5 | 5 | 5 | 5 | 5
O=C1CCCC(O)=C1C(=O)c1nc2cc(F)ccc2n(-c2ccc3c(c2)OCO3)c1=O [II-239] | 5 | 4 | 5 | 5 | 5 | 5 | 5 | 5
O=C1CCCC(O)=C1C(=O)c1nc2ccc(F)cc2n(-c2ccccc2)c1=O [II-241] | 5 | 5 | 5 | 5 | 5 | 5 | 5 | 5
O=C1CCCC(O)=C1C(=O)c1nc2ccc(F)cc2n(-c2ccc3c(c2)OCCO3)c1=O [II-242] | 5 | 5 | 4 | 5 | 5 | 5 | 5 | 4
O=C1CCCC(O)=C1C(=O)c1nc2cccc(F)c2n(-c2ccccc2)c1=O [II-243] | 5 | 5 | 5 | 5 | 5 | 5 | 5 | 5
Cc1cccc2c1nc(C(=O)C1=C(O)CCCC1=O)c(=O)n2-c1ccccc1 [II-244] | 5 | 5 | 5 | 5 | 5 | 5 | 5 | 5
O=C1CCCC(O)=C1C(=O)c1nc2cc(C(F)(F)F)ccc2n(-c2ccccc2)c1=O [II-249] | 5 | 5 | 5 | 5 | 5 | 5 | 5 | 5
COc1ccc2nc(C(=O)C3=C(O)CCCC3=O)c(=O)n(-c3ccccc3)c2c1 [II-252] | 5 | 5 | 5 | 5 | 5 | 5 | 5 | 5
COc1ccc2nc(C(=O)C3=C(O)CCCC3=O)c(=O)n(-c3cc(F)c(OC)cc3F)c2c1 [II-254] | 5 | 5 | 4 | 5 | 5 | 5 | 5 | 4
O=C1CCCC(O)=C1C(=O)c1nc2cc(F)c(F)cc2n(-c2ccccc2)c1=O [II-260] | 5 | 5 | 5 | 5 | 5 | 5 | 5 | 5
O=C1CCCC(O)=C1C(=O)c1nc2cc(F)cc(F)c2n(-c2ccccc2)c1=O [II-261] | 5 | 5 | 5 | 5 | 5 | 5 | 5 | 4
COc1ccc(-n2c(=O)c(C(=O)C3=C(O)CCCC3=O)nc3cc(F)c(OC)cc32)cc1 [II-263] | 5 | 5 | 4 | 5 | 5 | 5 | 5 | 4
